ChEMBL document CHEMBL1128360 (J Med Chem, 1995)

Target: T1, 5-hydroxytryptamine receptor 1A (Rattus norvegicus, UniProt P19327)
T1 sequence (P19327 whole entry): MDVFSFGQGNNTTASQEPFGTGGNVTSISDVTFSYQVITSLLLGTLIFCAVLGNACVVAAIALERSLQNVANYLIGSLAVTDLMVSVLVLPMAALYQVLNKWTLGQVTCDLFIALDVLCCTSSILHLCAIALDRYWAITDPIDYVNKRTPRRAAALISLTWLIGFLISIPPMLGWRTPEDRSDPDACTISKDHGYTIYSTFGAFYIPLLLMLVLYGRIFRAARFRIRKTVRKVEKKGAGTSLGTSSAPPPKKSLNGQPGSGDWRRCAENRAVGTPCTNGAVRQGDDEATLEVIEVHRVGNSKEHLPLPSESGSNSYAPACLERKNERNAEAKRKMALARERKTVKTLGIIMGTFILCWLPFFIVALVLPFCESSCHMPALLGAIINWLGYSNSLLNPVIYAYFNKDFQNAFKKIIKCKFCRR
Test: Inhibitory affinity constant against 5-hydroxytryptamine 1A receptor

- Ki: 0.0105 µM
SMILES: CC1(C)CC(=O)N(CCCCN2CCN(c3ccc4ccccc4n3)CC2)C(=O)C1
